From patent US9486422B2, “Small molecule inhibitors of Mcl-1 and the uses of thereof” (THE REGENTS OF THE UNIVERSITY OF MICHIGAN, priority 2011, dated 2016)
Read-outs that look alike come from different tables or passages of the source.

What was measured:
[1] = target: Mcl-1 (Homo sapiens, UniProt Q07820); assay: FP-based binding assay, Mcl-1; details: for Ki: read-out: Mcl-1 Ki ± SD; for binding to Mcl-1, result in words: FP assay
[2] = target: Bcl-xL (Homo sapiens, UniProt Q07817, DEL45-85); assay: FP-based binding assay, Bcl-xL; details: read-out: Bcl-xL Ki ± SD
[3] = target: T1, Bcl-2 (Homo sapiens, UniProt P10415); assay: FP-based binding assay, Bcl-2; details: competitive FP, Flu-BID 2 nM, protein 60 nM; read-out: Bcl-2 Ki ± SD
T1 construct: His-tagged proteins containing; fused on or other part: A 16-residue segment of the flexible loop of Bcl-xL (BCL2L1, Q07817; given as residues 35 to 50) set into the Bcl-2 loop region; His tag with TEV site from the pHis-TEV vector

[4] = target: T2, Bcl-w (Homo sapiens, UniProt Q92843); assay: FP-based binding assay, Bcl-w; details: for Ki: competitive FP, FAM-BID 2 nM, protein 40 nM, read-out: Bcl-w Ki ± SD
T2 sequence (Q92843 1-155): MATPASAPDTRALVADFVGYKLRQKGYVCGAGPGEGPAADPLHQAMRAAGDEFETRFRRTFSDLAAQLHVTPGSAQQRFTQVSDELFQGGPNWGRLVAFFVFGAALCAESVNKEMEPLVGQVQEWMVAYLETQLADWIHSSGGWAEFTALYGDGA

[5] = target: T3, A1/Bfl-1 (Homo sapiens, UniProt Q16548); assay: FP-based binding assay, A1/Bfl-1; details: for Ki: read-out: A1/Bfl-1 Ki ± SD
T3 sequence (Q16548 1-151): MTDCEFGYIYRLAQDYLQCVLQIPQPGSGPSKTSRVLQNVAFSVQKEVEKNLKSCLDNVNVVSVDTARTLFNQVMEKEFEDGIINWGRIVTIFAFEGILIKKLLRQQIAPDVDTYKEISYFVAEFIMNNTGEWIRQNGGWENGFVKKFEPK

[6] = competitive FP, Flu-BID 2 nM, Mcl-1 90 nM, read-out: Mcl-1 IC50 ± SD
[7] = competitive FP, Ki calculated from IC50
[8] = competitive FP, FAM-BID 2 nM, protein 50 nM
[9] = competitive FP, FAM-BID 1 nM, protein 4 nM

Bcl-xL, sequence (Q07817 other isoform, or with tags, fused parts or gaps DEL45-85): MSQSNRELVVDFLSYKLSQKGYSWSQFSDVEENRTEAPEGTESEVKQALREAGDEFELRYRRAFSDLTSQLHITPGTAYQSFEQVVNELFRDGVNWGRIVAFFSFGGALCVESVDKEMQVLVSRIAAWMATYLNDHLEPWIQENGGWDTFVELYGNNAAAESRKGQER
Mcl-1, sequence (Q07820 171-327): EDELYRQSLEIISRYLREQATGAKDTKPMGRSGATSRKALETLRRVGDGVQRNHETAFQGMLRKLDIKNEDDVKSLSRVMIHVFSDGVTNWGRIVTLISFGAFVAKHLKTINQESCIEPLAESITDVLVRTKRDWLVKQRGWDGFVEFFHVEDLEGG
T1 sequence (P10415 with tags, fused parts or gaps with the stated changes): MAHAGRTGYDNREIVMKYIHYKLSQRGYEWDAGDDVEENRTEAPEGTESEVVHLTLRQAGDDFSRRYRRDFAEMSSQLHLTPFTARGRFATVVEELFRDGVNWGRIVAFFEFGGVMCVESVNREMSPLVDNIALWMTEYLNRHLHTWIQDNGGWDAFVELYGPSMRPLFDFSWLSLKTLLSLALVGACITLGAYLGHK

Row | Structure (SMILES) | IC50 [1, 6] | Ki [1, 7] | also measured
1 | O=C(O)CSc1cc(NS(=O)(=O)c2ccc(F)cc2)c2ccccc2c1O [Compound 7] | 15.5 ± 3.38 µM | 4.23 ± 0.93 µM | 
2 | COC(=O)CSc1cc(NS(=O)(=O)c2ccc(Br)cc2)c2ccccc2c1O [Compound 29, Methyl 2-((4-(4-bromophenylsulfonamido)-1-hydroxynaphthalen-2-yl)thio)acetate] | 18.6 ± 4.93 µM | 5.08 ± 1.35 µM | Ki [2, 8]: > 130 µM; Ki [3]: 23.8 ± 5.08 µM; Ki [4]: > 90 µM; Ki [5, 9]: > 140 µM
3 | O=C(O)CSc1cc(NS(=O)(=O)c2ccc3ccccc3c2)c2ccccc2c1O [Compound 13] | 2.74 ± 0.18 µM | 0.73 ± 0.05 µM | 
4 | CCCCSc1cc(NS(=O)(=O)c2ccc(Br)cc2)c2ccccc2c1OC [Compound 40p, 4-Bromo-N-(3-(butylthio)-4-methoxynaphthalen-1-yl)benzenesulfonamide] | > 800 µM | > 200 µM | 
5 | COC(=O)CSc1cc(NS(=O)(=O)c2ccc(Br)cc2)c2ccccc2c1OC [Compound 40d, Methyl 2-((4-(4-bromophenylsulfonamido)-1-methoxynaphthalen-2-yl)thio)acetate] | > 800 µM | > 200 µM | 
6 | O=C(O)CSc1cc(NS(=O)(=O)c2ccccc2Br)c2ccccc2c1O [Compound 11, 2-((4-(2-Bromophenylsulfonamido)-1-hydroxynaphthalen-2-yl)thio)acetic acid] | 16.2 ± 3.12 µM |  | Ki [1]: 4.42 ± 0.86 µM
7 | CC[C@H](C)[C@H](NC(=O)[C@H](CC(N)=O)NC(=O)[C@H](CCCNC(=N)N)NC(=O)[C@@H](NC(=O)[C@@H](NC(=O)[C@H](CC(=O)O)NC(=O)[C@H](CCC(=O)O)NC(=O)c1ccc2c(c1)C(=O)OC21c2ccc(O)cc2Oc2cc(O)ccc21)[C@@H](C)CC)[C@@H](C)CC)C(=O)N[C@@H](C)C(=O)N[C@@H](CCCNC(=N)N)C(=O)N[C@@H](Cc1c[nH]cn1)C(=O)N[C@@H](CC(C)C)C(=O)N[C@@H](C)C(=O)N[C@@H](CCC(N)=O)C(=O)N[C@H](C(=O)NCC(=O)N[C@@H](CC(=O)O)C(=O)N[C@@H](CO)C(=O)N[C@@H](CCSC)C(=O)N[C@@H](CC(=O)O)C(=O)N[C@@H](CCCNC(=N)N)C(=O)O)C(C)C [FAM-BID, reference compound] |  |  | Kd ([4]; saturation experiments, tracer 2 nM, read-out: Kd of fluorescent probe to Bcl-w): 0.0055 ± 0.0016 µM; Kd ([5]; saturation experiments, tracer 2 nM, read-out: Kd of fluorescent probe to A1/Bfl-1): 0.00083 ± 6e-05 µM
8 | O=C(O)CCSc1cc(NS(=O)(=O)c2ccc3ccccc3c2)c2ccccc2c1O [Compound 34, 3-((1-Hydroxy-4-(naphthalene-2-sulfonamido)naphthalen-2-yl)thio)propanoic acid] | 4.2 ± 1.25 µM | 1.13 ± 0.34 µM | 
9 | O=C(O)CSc1cc(NS(=O)(=O)c2ccccc2)c2ccccc2c1O [Compound 2, 2-((1-Hydroxy-4-(phenylsulfonamido)naphthalen-2-yl)thio)acetic acid] | 13 ± 1.62 µM |  | Ki [1]: 3.56 ± 0.45 µM
10 | Cc1ccc(S(=O)(=O)Nc2cc(SCC(=O)O)c(O)c3ccccc23)cc1 [Compound 3] | 11.5 ± 0.78 µM | 3.13 ± 0.22 µM | 
11 | COc1c(SCC(N)=O)cc(NS(=O)(=O)c2ccc(Br)cc2)c2ccccc12 [Compound 4v, 2-((4-(4-Bromophenylsulfonamido)-1-methoxynaphthalen-2-yl)thio)acetamide] |  | > 25 µM | binding to Mcl-1, result in words [1]: loss of binding
12 | O=C(O)CCSc1cc(NS(=O)(=O)c2cccc3ccccc23)c2ccccc2c1O [Compound 35] | > 50 µM | > 12.5 µM | 
13 | O=C(O)CSc1cc(NS(=O)(=O)c2cc3ccccc3s2)c2ccccc2c1O [Compound 12, 2-((4-(Benzo[b]thiophene-2-sulfonamido)-1-hydroxynaphthalen-2-yl)thio)acetic acid] |  | 1.54 ± 0.32 µM | IC50 [1]: 5.66 ± 1.15 µM
14 | O=C(O)CSc1cc(NS(=O)(=O)c2ccc(-c3ccccc3)cc2)c2ccccc2c1O [Compound 14, 2-((4-([1,1′-Biphenyl]-4-ylsulfonamido)-1-hydroxynaphthalen-2-yl)thio)acetic acid] | 1.4 ± 0.36 µM |  | Ki [2]: 8.05 ± 0.5 µM; Ki [4]: 1.92 ± 0.37 µM; Ki [5]: 2.34 ± 0.37 µM; fold improved binding to Mcl-1 compared to 2 [1]: 9 fold; Ki [1]: 0.37 ± 0.1 µM
15 | O=C(O)CSc1cc(NS(=O)(=O)c2ccc(-c3ccc(Cl)cc3)cc2)c2ccccc2c1O [Compound 17, 2-((4-(4′-Chloro-[1,1′-biphenyl]-4-ylsulfonamido)-1-hydroxynaphthalen-2-yl)thio)acetic acid] | 0.68 ± 0.14 µM | 0.17 ± 0.04 µM | 
16 | CC(C)(C)c1ccc(S(=O)(=O)Nc2cc(SCC(=O)O)c(O)c3ccccc23)cc1 [Compound 6] | 3.03 ± 0.17 µM | 0.81 ± 0.04 µM | 
17 | NC(=O)CSc1cc(NS(=O)(=O)c2ccc(Br)cc2)c2ccccc2c1O [Compound 33, 2-((4-(4-Bromophenylsulfonamido)-1-hydroxynaphthalen-2-yl)thio)acetamide] | 6.27 ± 1.28 µM |  | Ki [1]: 1.71 ± 0.35 µM

Row | Structure (SMILES) | IC50 [1, 6] | Ki [1, 7] | also measured
18 | CCc1ccc(S(=O)(=O)Nc2cc(SCC(=O)O)c(O)c3ccccc23)cc1 [Compound 4] | 5.73 ± 1.34 µM | 1.55 ± 0.37 µM | 
19 | CCCCSc1cc(NS(=O)(=O)c2ccc(Br)cc2)c2ccccc2c1O [Compound 30, 4-Bromo-N-(3-(butylthio)-4-hydroxynaphthalen-1-yl)benzenesulfonamide] | > 100 µM | > 25 µM | binding to Mcl-1, result in words [1]: abolished the binding to Mcl-1 protein
20 | CS(=O)(=O)Nc1cc(SCC(=O)O)c(O)c2ccccc12 [Compound 21, 2-((1-Hydroxy-4-(methylsulfonamido)naphthalen-2-yl)thio)acetic acid] | > 200 µM | > 50 µM | 
21 | O=C(O)CSc1cc(NS(=O)(=O)c2cccc(-c3ccccc3)c2)c2ccccc2c1O [Compound 15, 2-((4-([1,1′-Biphenyl]-3-ylsulfonamido)-1-hydroxynaphthalen-2-yl)thio)acetic acid] | 1.41 ± 0.17 µM |  | Ki [2]: 15.1 ± 1.11 µM; Ki [4]: 2.19 ± 0.45 µM; Ki [5]: 3.18 ± 0.41 µM; fold improved binding to Mcl-1 compared to 2 [1]: 9 fold; Ki [1]: 0.38 ± 0.03 µM
22 | O=S(=O)(Nc1cc(CCCCO)c(O)c2ccccc12)c1ccc(Br)cc1 [Compound 32, 4-Bromo-N-(4-hydroxy-3-(4-hydroxybutyl)naphthalen-1-yl)benzenesulfonamide] | 8.01 ± 3.31 µM |  | fold decreased binding to Mcl-1 compared to 9 (UMI-77) [1]: 4 fold; Ki [1]: 2.18 ± 0.91 µM
23 | O=C(O)CSc1cc(NS(=O)(=O)Cc2ccc(Cl)cc2)c2ccccc2c1O [Compound 25, 2-((4-((4-Chlorophenyl)methylsulfonamido)-1-hydroxynaphthalen-2-yl)thio)acetic acid] | 19.1 ± 1.31 µM | 5.23 ± 0.36 µM | 
24 | O=C(O)CSc1cc(NC(=O)c2ccc(Br)cc2)c2ccccc2c1O [Compound 23, 2-((4-(4-Bromobenzamido)-1-hydroxynaphthalen-2-yl)thio)acetic acid] | > 100 µM | > 25 µM | 
25 | O=C(O)CSc1cc(NS(=O)(=O)c2ccc(C(=O)O)cc2)c2ccccc2c1O [Compound 20] | 17.4 µM | 4.76 µM | 
26 | O=C(O)CSc1cc(NS(=O)(=O)c2ccc(Cl)cc2)c2ccccc2c1O [Compound 8, 2-((4-(4-Chlorophenylsulfonamido)-1-hydroxynaphthalen-2-yl)thio)acetic acid] | 3.08 ± 0.35 µM |  | Ki [1]: 0.82 ± 0.1 µM
27 | O=C(O)CSc1cc(NS(=O)(=O)c2ccc(Oc3ccccc3)cc2)c2ccccc2c1O [Compound 18, 2-((1-Hydroxy-4-(4-phenoxyphenylsulfonamido)naphthalen-2-yl)thio)acetic acid] |  |  | Ki [2, 8]: 10.6 ± 1.53 µM; Ki [4]: 1.58 ± 0.35 µM; Ki [5, 9]: 3.36 ± 0.56 µM
28 | CCOc1ccc(S(=O)(=O)Nc2cc(SCC(=O)O)c(O)c3ccccc23)cc1 [Compound 19] | 50.1 ± 4.15 µM | 13.7 ± 1.14 µM | 
29 | CC(C)c1ccc(S(=O)(=O)Nc2cc(SCC(=O)O)c(O)c3ccccc23)cc1 [Compound 5] |  | 1.06 ± 0.17 µM | IC50 ([1]; read-out: Mcl-1 IC50 ± SD): 3.92 ± 0.63 µM
30 | O=C(O)CSc1cc(NS(=O)(=O)c2ccccc2-c2ccccc2)c2ccccc2c1O [Compound 16, 2-((4-([1,1′-Biphenyl]-2-ylsulfonamido)-1-hydroxynaphthalen-2-yl)thio)acetic acid] | 7.47 ± 1.47 µM |  | Ki [2]: 48.1 ± 3.28 µM; Ki [4]: 4.41 ± 0.39 µM; Ki [5]: 17.3 ± 0.56 µM; fold improved binding to Mcl-1 compared to 2 [1]: 2 fold; Ki [1]: 2.03 ± 0.41 µM
31 | O=S(=O)(Nc1ccc(O)c2ccccc12)c1ccccc1 [Compound 27, N-(4-Hydroxynaphthalen-1-yl)benzenesulfonamide] | > 100 µM | > 25 µM | binding to Mcl-1, result in words [1]: abolished binding
32 | O=C(O)CSc1cc(NS(=O)(=O)c2cccc(Br)c2)c2ccccc2c1O [Compound 10, 2-((4-(3-Bromophenylsulfonamido)-1-hydroxynaphthalen-2-yl)thio)acetic acid] | 8.64 ± 0.69 µM | 2.35 ± 0.19 µM | 
33 | O=C(O)CSc1cc(NC(=O)Cc2ccccc2)c2ccccc2c1O [Compound 24, 2-((1-Hydroxy-4-(2-phenylacetamido)naphthalen-2-yl)thio)acetic acid] | 154 ± 40.2 µM | 42.4 ± 11 µM | 
